# Test results taken from patent US20100035856A1, “Beta-LACTAM-CONTAINING FORMULATIONS WITH INCREASED STABILITY IN AQUEOUS SOLUTION” (BAYER ANIMAL HEALTH GMBH, priority 2007, published 2010).
# Experiment: Stability of amoxicillin/K-clavulanate 4:1 in aqueous solution with urea
# Assay type: physicochemical
"loss of active ingredient (amoxicillin in aqueous amoxiclav solution containing 40% urea, within 24 hours)",Structure (SMILES),"stability of clavulanic acid, effect of urea (aqueous amoxiclav solution with urea (FIG. 4))"
less than 10%,CC1(C)S[C@@H]2[C@H](NC(=O)[C@H](N)c3ccc(O)cc3)C(=O)N2[C@H]1C(=O)O [amoxicillin],–
–,O=C(O)[C@H]1/C(=C/CO)O[C@@H]2CC(=O)N21 [clavulanic acid],not adversely affected at all
